According to PMC10724569 (Heliyon, 2023):

System: VRBMP-1 binding to ACE2 on NOK cells
Type: cell-based, human

Substance: diminazene aceturate [DIZE]
- Binding of VRBMP-1 to NOK cells after DIZE treatment: significantly reduced binding of VRBMP-1 at all three concentrations in a dose-dependent manner
- Reduction of VRBMP-1 binding, decoy peptides and DIZE each alone: significantly reduced the binding of VRBMP-1 with nearly the same potency
